Values quoted from earlier work, collected in US20100317666A1, “Composition Comprising An NK-1 Receptor Antagonist And An SSRI For The Treatment Of Tinnitus And Hearing Loss” (Glaxo Group Limited, priority 2006, published 2010).

Assays:
[1] = iv infusion; transient effect
[2] = 8-12 weeks treatment; high dose (up to 50 mg/day)

SMILES | subject responding with tinnitus partial or complete inhibition [1] | effects on tinnitus [2]
CCN(CC)CC(=O)Nc1c(C)cccc1C [lidocaine] | up to 60% | –
Fc1ccc([C@@H]2CCNC[C@H]2COc2ccc3c(c2)OCO3)cc1 (relative stereo) [paroxetine, trans-(−)-3-[(1,3-benzodioxol-5-yloxy)methyl]-4-(4-fluorophenyl)piperidine] | – | Modest effects
